The term IC50 denotes the concentration at which inhibition is half-maximal. A higher IC50 goes with weaker potency.

For test [1], the system named is DOHH2 cells. The experiment in a line: Cell proliferation assay (MTS), DOHH2 cells, 120 h. It counts as cell-based. The conditions noted are these: Homo sapiens. Put shortly:
(§1)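 Cells in RPMI-1640 with 10% FBS were seeded at 5000/well, left overnight at 37° C., 5% CO2, then exposed to compound at 10000 down to 1.5 nM (nine concentrations) for 72 h (RS4;11) or 120 h (DOHH2). Viability was read by MTS, 2 h, absorbance at 490/650 nm; IC50 calculated.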

The test system of test [2] is RS4;11 cells. Put plainly: Cell proliferation assay (MTS), RS4;11 cells, 72 h. It counts as cell-based. The conditions noted are these: Homo sapiens. In a few lines:
as §1

Take `CC1(C)CCC(CN2CCN(c3ccc(C(=O)NS(=O)(=O)c4cc5c(c([N+](=O)[O-])c4)N[C@@H](C4CCN(S(C)(=O)=O)CC4)CO5)c(Oc4cnc5[nH]ccc5c4)c3)CC2)=C(c2ccc(Cl)cc2)C1` [Example 2-232, (S)-2-((1H-pyrrolo[2,3-b]pyridin-5-yl)oxy)-4-(4-((4′-chloro-5,5-dimethyl-3,4,5,6-tetra-hydro-[1,1′-biphenyl]-2-yl)methyl)piperazin-1-yl)-N-((3-(1-(methyslulfonyl)piperidin-4-yl)-5-nitro-3,4-dihydro-2H-benzo[b][1,4]oxazin-7-yl)sulfonyl)benzamide]: the concentration for half-maximal inhibition (IC50) was found to be 1 nM in test [1] (DOHH-2, 120 h) and 6 nM in test [2] (RS4-11, 72 h).
For `COCC[C@H]1CSc2cc(S(=O)(=O)NC(=O)c3ccc(N4CCN(CC5=C(c6ccc(Cl)cc6)CC(C)(C)CC5)CC4)cc3Oc3cnc4[nH]ccc4c3)cc([N+](=O)[O-])c2N1` [Example 3-16, (S)-2-((1H-pyrrolo[2,3-b]pyridin-5-yl)oxy)-4-(4-((4′-chloro-5,5-dimethyl-3,4,5,6-tetra-hydro-[1,1′-biphenyl]-2-yl)methyl)piperazin-1-yl)-N-((3-(2-methoxyethyl)-5-nitro-3,4-dihydro-2H-benzo[b][1,4]thiazin-7-yl)sulfonyl)benzamide], in that order: 132 nM and 33 nM.
For `C[C@H]1CN(CC[C@@H]2COc3cc(S(=O)(=O)NC(=O)c4ccc(N5CCN(CC6=C(c7ccc(Cl)cc7)CC(C)(C)CC6)CC5)cc4Oc4cnc5[nH]ccc5c4)cc([N+](=O)[O-])c3N2)CCN1C` [Example 2-37, 2-((1H-pyrrolo[2,3-b]pyridin-5-yl)oxy)-4-(4-((4′-chloro-5,5-dimethyl-3,4,5,6-tetrahydro-[1,1′-biphenyl]-2-yl)methyl)piperazin-1-yl)-N-(((R)-3-(2-((S)-3,4-dimethylpiperazin-1-yl)ethyl)-5-nitro-3,4-dihydro-2H-benzo [b][1,4]oxazin-7-yl)sulfonyl)benzamide], the IC50 in test [1] (DOHH-2, 120 h) is 25 nM; in test [2] (RS4-11, 72 h), 1 nM.
For `CC1(C)CCC(CN2CCN(c3ccc(C(=O)NS(=O)(=O)c4cc5c(c([N+](=O)[O-])c4)N[C@@H](CN4CCCCC4)CO5)c(Oc4cnc5[nH]ccc5c4)c3)CC2)=C(c2ccc(Cl)cc2)C1` [Example 2-89, (S)-2-((1H-pyrrolo[2,3-b]pyridin-5-yl)oxy)-4-(4-((4′-chloro-5,5-dimethyl-3,4,5,6-tetra-hydro-[1,1′-biphenyl]-2-yl)methyl)piperazin-1-yl)-N-((5-nitro-3-(piperidin-1-ylmethyl)-3,4-dihydro-2H-benzo[b][1,4]oxazin-7-yl)sulfonyl)benzamide], in that order: 55 nM and 50 nM.
For `CC1(C)CCC(CN2CCN(c3ccc(C(=O)NS(=O)(=O)c4cc5c(c([N+](=O)[O-])c4)N[C@@H](CS(C)(=O)=O)CO5)c(Oc4cnc5[nH]ccc5c4)c3)CC2)=C(c2ccc(Cl)cc2)C1` [Example 2-147, (R)-2-((1H-pyrrolo[2,3-b]pyridin-5-yl)oxy)-4-(4-((4′-chloro-5,5-dimethyl-3,4,5,6-tetra-hydro-[1,1′-biphenyl]-2-yl)methyl)piperazin-1-yl)-N-((3-((methylsulfonyl)methyl)-5-nitro-3,4-dihdyro-2H-benzo[b][1,4]oxazin-7-yl)sulfonyl)benzamide], in that order: 135 nM and 16 nM.
Regarding `CC1(C)CCC(CN2CCN(c3ccc(C(=O)NS(=O)(=O)c4cc5c(c([N+](=O)[O-])c4)N[C@@H](CCN4CCN(C6COC6)CC4)CO5)c(Oc4cnc5[nH]ccc5c4)c3)CC2)=C(c2ccc(Cl)cc2)C1` [Example 2-48, (S)-2-((1H-pyrrolo[2,3-b]pyridin-5-yl)oxy)-4-(4-((4′-chloro-5,5-dimethyl-3,4,5,6-tetra-hydro-[1,1′-biphenyl]-2-yl)methyl)piperazin-1-yl)-N-((5-nitro-3-(2-(4-(oxetan-3-yl)piper-azin-1-yl)ethyl)-3,4-dihydro-2H-benzo [b][1,4]oxazin-7-yl)sulfonyl)benzamide], the IC50 in test [1] (DOHH-2, 120 h) was 9 nM; in test [2] (RS4-11, 72 h), 14 nM.
The like results for `CC1(C)CCC(CN2CCN(c3ccc(C(=O)NS(=O)(=O)c4cc5c(c([N+](=O)[O-])c4)N[C@H](CCN=S(C)(C)=O)CO5)c(Oc4cnc5[nH]ccc5c4)c3)CC2)=C(c2ccc(Cl)cc2)C1` [Example 2-33, (R)-2-((1H-pyrrolo[2,3-b]pyridin-5-yl)oxy)-4-(4-((4′-chloro-5,5-dimethyl-3,4,5,6-tetra-hydro-[1,1′-biphenyl]-2-yl)methyl)piperazin-1-yl)-N-((3-(2-((dimethyl(oxo)-l6-sulfanyl-idene)amino)ethyl)-5-nitro-3,4-dihydro-2H-benzo[b][1,4]oxazin-7-yl)sulfonyl)benza-mide] were, in that order, 25 nM and 11 nM.
The like results for `CC1(C)CCC(c2ccc(Cl)cc2)=C(CN2CCN(c3ccc(C(=O)NS(=O)(=O)c4cc5c(c([N+](=O)[O-])c4)N[C@@H](Cc4ccccn4)CO5)c(Oc4cnc5[nH]ccc5c4)c3)CC2)C1` [Example 2-211, (S)-2-((1H-pyrrolo[2,3-b]pyridin-5-yl)oxy)-4-(4-((4′-chloro-4,4-dimethyl-3,4,5,6-tetra-hydro-[1,1′-biphenyl]-2-yl)methyl)piperazin-1-yl)-N-((5-nitro-3-(pyridin-2-ylmethyl)-3,4-dihydro-2H-benzo[b][1,4]oxazin-7-yl)sulfonyl)benzamide] were, in that order, 92 nM and 35 nM.
For `CC(=O)N1CCC(C[C@@H]2COc3cc(S(=O)(=O)NC(=O)c4ccc(N5CCN(CC6=C(c7ccc(Cl)cc7)CC(C)(C)CC6)CC5)cc4Oc4cnc5[nH]ccc5c4)cc([N+](=O)[O-])c3N2)CC1` [Example 2-203, (R)-2-((1H-pyrrolo[2,3-b]pyridin-5-yl)oxy)-N-((3-((1-acetylpiperidin-4-yl)methyl)-5-nitro-3,4-dihydro-2H-benzo[b][1,4]oxazin-7-yl)sulfonyl)-4-(4-((4′-chloro-5,5-dimethyl-3,4,5,6-tetrahydro-[1,1′-biphenyl]-2-yl)meth-yl)piperazin-1-yl)benzamide], in that order: 96 nM and 20 nM.
Regarding `CC1(C)CCC(CN2CCN(c3ccc(C(=O)NS(=O)(=O)c4cc5c(c([N+](=O)[O-])c4)N[C@H](CCN4CCC(C)(O)CC4)CO5)c(Oc4cnc5[nH]ccc5c4)c3)CC2)=C(c2ccc(Cl)cc2)C1` [Example 2-15, (R)-2-((1H-pyrrolo[2,3-b]pyridin-5-yl)oxy)-4-(4-((4′-chloro-5,5-dimethyl-3,4,5,6-tetra-hydro-[1,1′-biphenyl]-2-yl)methyl)piperazin-1-yl)-N-((3-(2-(4-hydroxy-4-methylpiper-idin-1-yl)ethyl)-5-nitro-3,4-dihydro-2H-benzo[b][1,4]oxazin-7-yl)sulfonyl)benzamide], the IC50 stood at 50 nM in test [1] (DOHH-2, 120 h) and 20 nM in test [2] (RS4-11, 72 h).
For the compound `CC1(C)CCC(CN2CCN(c3ccc(C(=O)NS(=O)(=O)c4cc5c(c([N+](=O)[O-])c4)N[C@H](CCNS(C)(=O)=O)CO5)c(Oc4cnc5[nH]ccc5c4)c3)CC2)=C(c2ccc(Cl)cc2)C1` [Example 2-68, (R)-2-((1H-pyrrolo[2,3-b]pyridin-5-yl)oxy)-4-(4-((4′-chloro-5,5-dimethyl-3,4,5,6-tetra-hydro-[1,1′-biphenyl]-2-yl)methyl)piperazin-1-yl)-N-((3-(2-(methysulfonamido)ethyl)-5-nitro-3,4-dihydro-2H-benzo[b][1,4]oxa-zin-7-yl)sulfonyl)benzamide], the IC50 in test [1] (DOHH-2, 120 h) worked out at 83 nM; in test [2] (RS4-11, 72 h), 26 nM.
Turning to `CC1(C)CCC(CN2CCN(c3ccc(C(=O)NS(=O)(=O)c4cc5c(c([N+](=O)[O-])c4)N[C@H](C4CCC(C)(O)CC4)CO5)c(Oc4cnc5[nH]ccc5c4)c3)CC2)=C(c2ccc(Cl)cc2)C1` (single isomer, unassigned) [Example 2-3B], the 50% inhibitory concentration (IC50) amounted to 33 nM in test [1] (DOHH-2) and 8 nM in test [2].
As for `COc1ccc(CC2COc3cc(S(=O)(=O)NC(=O)c4ccc(N5CCN(CC6=C(c7ccc(Cl)cc7)CC(C)(C)CC6)CC5)cc4Oc4cnc5[nH]ccc5c4)cc([N+](=O)[O-])c3N2)nc1` (stereo not drawn) [Example 2-161, 2-((1H-pyrrolo[2,3-b]pyridin-5-yl)oxy)-4-(4-((4′-chloro-5,5-dimethyl-3,4,5,6-tetrahydro-[1,1′-biphenyl]-2-yl)methyl)piperazin-1-yl)-N-((3-((5-methoxypyridin-2-yl)methyl)-5-nitro-3,4-dihydro-2H-benzo[b][1,4]oxa-zin-7-yl)sulfonyl)benzamide], the half-maximal inhibitory concentration (IC50) in test [1] (DOHH-2, 120 h) was 20 nM; in test [2] (RS4-11, 72 h) it was 17 nM.
For `CS(=O)OCC[C@H]1CSc2cc(S(=O)(=O)NC(=O)c3ccc(N4CCN(CC5=C(c6ccc(Cl)cc6)CC(C)(C)CC5)CC4)cc3Oc3cnc4[nH]ccc4c3)cc([N+](=O)[O-])c2N1` (stereo partly drawn) [Example 3-17, 2-((S)-7-(N-(2-((1H-pyrrolo[2,3-b]pyridin-5-yl)oxy)-4-(4-((4′-chloro-5,5-dimethyl-3,4,5,6-tetrahydro-[1,1′-biphenyl]-2-yl)methyl)piperazin-1-yl)benzoyl)sulfamoyl)-5-nitro-3,4-dihydro-2H-benzo[b][1,4]thiazin-3-yl) ethyl methanesulfinate], in that order: 49 nM and 19 nM.
The like results for `CO[C@H]1CC[C@H](OC[C@@H]2COc3cc(S(=O)(=O)NC(=O)c4ccc(N5CCN(CC6=C(c7ccc(Cl)cc7)CCC(C)(C)C6)CC5)cc4Oc4cnc5[nH]ccc5c4)cc([N+](=O)[O-])c3N2)CC1` [Example 2-252, 2-((1H-pyrrolo[2,3-b]pyridin-5-yl)oxy)-4-(4-((4′-chloro-4,4-dimethyl-3,4,5,6-tetrahydro-[1,1′-biphenyl]-2-yl)methyl)piperazin-1-yl)-N-(((R)-3-((((1r,4R)-4-methoxycyclo-hexyl)oxy)methyl)-5-nitro-3,4-dihydro-2H-benzo[b][1,4]oxazin-7-yl)sulfonyl)benzamide] were, in that order, 83 nM and 29 nM.

The values above are taken from patent publication US11091478B2 (Fochon Pharmaceuticals, Ltd., priority 2017, dated 2021).
